Laboratory results from patent publication US20260022122A1 (Checkmate Therapeutics Inc., priority 2022, published 2026).

Experiments:
NamPT = NamPT (Homo sapiens (Human), UniProt P43490); test: Measurement of NamPT inhibitory ability IC50 (NamPT colorimetric assay kit, Abcam ab221819); assay type: biochemical; conditions: NamPT recombinant protein, WST-1 absorbance at 450 nm; class key in μM
Protocol: To test the effect of the compound prepared in each Example on the substrate decomposition rate (Vmax/min) mediated by NamPT enzyme, IC50 was calculated. In this experiment, the NamPT colorimetric assay kit (ab221819) produced by Abcam was used, and Graph prism software was used for IC50 calculation. PRPP, ATP, NMNAT1, NamPT recombinant proteins, and various concentrations of the compound of each Example (half-log step dilution from 100 μM) were added to nicotinamide to synthesize nicotinamide adenine dinucleotide (NAD) from the nicotinamide, and a total of 60 μL of the reaction solution was reacted at room temperature for 1 hour. WST-1 formazan converted by NAD generated by adding WST-1 was measured. The result of the reaction was obtained by the following formula by measuring absorbance using EnVision2105 (PerkinElmer) at 450 nm for 60 minutes at 2-minute intervals.
In Mathematical Formula 1, T1 and T2 are arbitrary times, and A1 and A2 represent the absorbance measured at T1 and T2 at 450 nm, respectively.
The results of measuring the NamPT inhibition activity of the compound of each Example obtained through the above experiment are shown in Table 1 in the unit of IC50 (nM), and the result values are expressed as follows.

[1] = test system: NAPRT negative lung cancer cell lines (H322, H661, H1155); test: Proliferation inhibition on NAPRT negative lung cancer cell lines (CellTiter-Glo); assay type: cell-based; conditions: 72 hours
Protocol: (§1) A compound showing a low IC50 value was selected from the compounds of the above Examples and treated an NAPRT positive or negative lung cancer cell line with various concentrations, and then the change in cell viability for each cell line was measured. The results are presented in a graph (a few materials known as NamPT inhibitors were used as controls). A total of 9 cancer cells lines (three NAPRT negative cell lines: H322, H661, and H1155; and six NAPRT positive cell lines: H1993, H2122, H2030, H1975, H1299, and HBEC30) were used. 5% fetal bovine serum (Gibco, US) and 1% penicillin/streptomycin (Gibco) were added to a medium, and the cells were cultured in a 37° C. constant temperature incubator containing 5% CO2. For compound treatment, each type of cells were seeded at 3×10^3 cells/well in a 96-well plate (Corning) and then incubated in a 37° C. constant temperature incubator containing 5% CO2 for 18 hours. […] Afterwards, the cells were cultured in an incubator containing 5% CO2 at 37° C. for 72 hours. To confirm the effect of inhibiting the proliferation of cancer cells, a CellTiter-Glo Luminescent Cell Viability Assay (Promega) was used. After treating the cells with 10 μL of CellTiter-Glo luciferase reagent and leaving them for 15 minutes at room temperature, the luminescence of each well was measured using EnVision2105 (PerkinElmer). The change in cell viability by the compound diluted at the concentration of each step was converted into a relative % value for the amount of luminescence shown by DMSO treatment. EC50 is expressed as the concentration of each compound that induces 50% of the maximum luminescence level.
(§2) The results of measuring the proliferation inhibition ability of the compound of each Example on nine types of lung cancer cell lines, obtained through the above experiment, are shown in Table 2 in the unit of EC50 (μM). The resulting values are expressed as follows.

[2] = test system: NAPRT positive cell lines (H1993, H2122, H2030, H1975, H1299, HBEC30); test: Proliferation inhibition on NAPRT positive lung cancer cell lines (CellTiter-Glo); assay type: cell-based; conditions: 72 hours
Protocol: as §1, §2

[3] = test system: NAPRT-negative gastric cancer cell line HGC27; test: NAPRT-negative cancer cell xenograft model (% tumor growth inhibition); assay type: in vivo; conditions: 50 mg/kg, orally once a day from day 1 to day 21, HGC27 xenograft in BALB/c nude mice
Excerpt: Based on the effect of inhibiting proliferation limited to NAPRT-negative cancer cell lines according to the experiment of the proliferation inhibitory effect (EC50) on NAPRT-negative cancer cell lines, the pharmacological effect in a xenograft model using NAPRT-negative cancer cell lines was verified. Five-week-old female BALB/c nude mice were purchased and used in the experiment after acclimation for one week. The cancer cells used in the experiment were a NAPRT-negative gastric cancer cell line HGC27, and cultured in […] medium (Gibco) to which 5% Fetal Bovine Serum (Gibco, US) and 1% penicillin/streptomycin (Gibco) were added. HGC27 was suspended in PBS (Welgene) and transplanted to have 5×10^6 cells into each mouse. After adding Matrigel in the same value, tumors were induced by subcutaneous injection into the right flank using a 1 mL syringe. After 3 weeks of breeding, when the average tumor size was 100 to 150 mm^3, mice were randomly divided into groups of 7 and administered each compound. The compound was prepared in an excipient (0.5% DMSO/2% Tween 80/20% PEG 400/20% b-HPCD in 77.5% DW) as an agent for oral administration, and administered orally once a day from day 1 to day 21 to the mouse model in which a tumor was generated. From day 1 to day 21, the body weight was measured once daily, and the tumor size was measured three times a week. The tumor size was measured using a caliper and calculated using the following formula.
In Mathematical Formula 2, W is a length, and d is a width.
On day 21, all animals were euthanized, blood samples were collected, and tumors were removed. To evaluate blood toxicity, blood was collected from an EDTA-containing blood collection tube, and subjected to a general blood test (complete blood count, CBC) and a blood biochemical test. Isolated tumors were weighed after photographing and a portion was used to measure NAD to verify the on-target efficacy of the compound. To measure NAD, a NAD/NADH Quantitation Colorimetric Kit (K337) produced by BioVision was used.
The pharmacological effect of each compound in the NAPRT-negative cancer cell xenograft models, obtained in this experiment, is shown in Table 3 in the unit of % TGI (tumor growth inhibition).

Sequence of NamPT (P43490 whole entry): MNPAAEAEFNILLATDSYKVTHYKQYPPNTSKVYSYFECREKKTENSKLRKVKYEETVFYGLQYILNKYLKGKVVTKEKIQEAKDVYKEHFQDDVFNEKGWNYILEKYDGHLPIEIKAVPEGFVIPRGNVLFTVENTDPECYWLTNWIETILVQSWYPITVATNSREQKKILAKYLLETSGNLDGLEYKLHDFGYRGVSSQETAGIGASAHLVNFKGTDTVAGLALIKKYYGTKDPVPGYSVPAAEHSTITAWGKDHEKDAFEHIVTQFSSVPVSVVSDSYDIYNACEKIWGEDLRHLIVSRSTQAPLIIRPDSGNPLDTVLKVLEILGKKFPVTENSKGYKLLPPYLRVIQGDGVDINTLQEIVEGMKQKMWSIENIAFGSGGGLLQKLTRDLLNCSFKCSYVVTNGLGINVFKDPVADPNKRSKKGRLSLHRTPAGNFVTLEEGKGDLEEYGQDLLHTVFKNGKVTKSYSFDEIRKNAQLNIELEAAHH

IC50 (NamPT) | EC50 [1] | EC50 [2] | SMILES | % TGI (Tumor Growth inhibition) [3]
< 0.05 µM | < 0.05 µM | > 101 µM | O=C(NCc1ccc(-c2nc3ccc(Cl)cc3o2)cc1)c1cnc2nccn2c1 [Example 4, N-[[4-(6-chloro-1,3-benzoxazol-2-yl)phenyl]methyl]imidazo[1,2-a]pyrimidin-6-carboxamide] | 80%
< 0.05 µM | < 0.05 µM | > 101 µM | Cc1cc2nc(-c3ccc(CNC(=O)c4cnc5nccn5c4)cc3)oc2cc1Cl [Example 10, N-[[4-(6-chloro-5-methyl-1,3-benzoxazol-2-yl)phenyl]methyl]imidazo[1,2-a]pyrimidin-6-carboxamide] | 61%
< 0.05 µM | < 0.05 µM | > 101 µM | O=C(NCc1ccc(-c2nc3cc(C(F)(F)F)ccc3o2)cc1)c1cnc2nccn2c1 [Example 13, N-[[4-[5-(trifluoromethyl)-1,3-benzoxazol-2-yl]phenyl]methyl]imidazo[1,2-a]pyrimidin-6-carboxamide] | 63%
